Laboratory results from patent publication US8247211B2, “Glycopeptide antibiotics” (American Cyanamid Company, priority 2001, dated 2012).
≈ marks a conversion by molar mass, not a printed value.

Key:
Experiment in all cases: In vitro antibacterial evaluation: minimum inhibitory concentration (MIC), broth dilution method
Type in all cases: cell-based
[1] = system: Streptococcus sp.; settings: 18 hours at 35° C.
Method in brief: (§1)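 MIC read as lowest drug level preventing visible growth. Organisms at 5×10^5 CFU/mL were exposed to a 64-0.06 μg/mL dilution series in Muller-Hinton II […] following NCCLS broth dilution standard M7-A2.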

[2] = system: Escherichia coli; settings: 18 hours at 35° C.
Method in brief: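 Susceptibility determined by NCCLS-recommended broth dilution (M7-A2), Muller-Hinton II […]. Concentration span 64-0.06 μg/mL, inoculum 5×10^5 CFU/mL. Isolates include strains resistant to methicillin, penicillin and/or vancomycin.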

[3] = system: Staphylococcus sp.; settings: for MIC Staphylococcus aureus (ATCC 29213): strain ATCC 29213; for MIC Staphylococcus aureus (GC 1131): strain GC 1131; for MIC Staphylococcus aureus (GC 4541): strain GC 4541; for MIC Staphylococcus aureus-SMITH (GC 4543): strain GC 4543; for MIC Coagulase Negative Staphylococcus (GC 4547): strain GC 4547; for MIC Coagulase Negative Staphylococcus (GC 4548): strain GC 4548; for MIC Coagulase Negative Staphylococcus (GC 4549): strain GC 4549; for MIC Coagulase Negative Staphylococcus (GC 6257): strain GC 6257
Method in brief: as §1

[4] = system: Enterococcus sp.; settings: 18 hours at 35° C.
Method in brief: as §1

[5] = Streptococcus pneumoniae (ATCC 6301)
[6] = Streptococcus pneumoniae (GC 1894)
[7] = broth dilution, inoculum 5×10^5 CFU/mL
[8] = Enterococcus faecalis (ATCC 29212)
[9] = Enterococcus faecalis (GC 2242)
[10] = Enterococcus faecalis (GC 6189)

CC(c1ccccc1)C1NC(=O)CNC(=O)C(CO)NC(=O)C(C(O)C2CNC(=N)N2C2OC(CO)C(O)C(O)C2O)NC(=O)C(C(O)C2CNC(=N)N2)NC(=O)C(Cc2ccc(OC3OC(CO)C(OC4OC5COC6(CCCCCCCCCCC6)OC5C(O)C4O)C(O)C3O)cc2)NC1=O (stereo not drawn) [Example 209, Cyclo[glycyl-β-methylphenylalanyl-O-[4-O-(4,6-O-cyclododecylidenehexopyranosyl)-hexopyranosyl]tyrosyl-3-(2-iminoimidazolidin-4-yl)seryl-3-(3-hexopyranosyl-2-iminoimidazolidin-4-yl)serylseryl]]
MIC Streptococcus pneumoniae (ATCC 6301) [1, 5]: <0.06 µg/mL
MIC Streptococcus pneumoniae (GC 1894) [1, 6]: <0.06 µg/mL
MIC Streptococcus pneumoniae (ATCC 6301) [1, 7]: <0.06 µg/mL
MIC Streptococcus pneumoniae (GC 1894) [1, 7]: <0.06 µg/mL
MIC Escherichia coli (ATCC 25922) [2]: 64 µg/mL (≈ 43.8 µM)
MIC Escherichia coli (GC 4559) [2]: >64 µg/mL
MIC Escherichia coli (GC 4560) [2]: 4 µg/mL (≈ 2.74 µM)
MIC Staphylococcus aureus (ATCC 29213) [3]: 4 µg/mL (≈ 2.74 µM)
MIC Staphylococcus aureus (GC 1131) [3]: 2 µg/mL (≈ 1.37 µM)
MIC Staphylococcus aureus (GC 4541) [3]: 2 µg/mL (≈ 1.37 µM)
MIC Staphylococcus aureus-SMITH (GC 4543) [3]: 1 µg/mL (≈ 0.685 µM)
MIC Coagulase Negative Staphylococcus (GC 4547) [3]: 4 µg/mL (≈ 2.74 µM)
MIC Coagulase Negative Staphylococcus (GC 4548) [3]: 1 µg/mL (≈ 0.685 µM)
MIC Coagulase Negative Staphylococcus (GC 4549) [3]: 1 µg/mL (≈ 0.685 µM)
MIC Coagulase Negative Staphylococcus (GC 6257) [3]: 2 µg/mL (≈ 1.37 µM)
MIC Enterococcus avium (GC 4558) ([4]; Enterococcus avium (GC 4558)): 4 µg/mL (≈ 2.74 µM)
MIC Enterococcus faecalis (ATCC 29212) [4, 8]: 4 µg/mL (≈ 2.74 µM)
MIC Enterococcus faecalis (GC 2242) [4, 9]: 4 µg/mL (≈ 2.74 µM)
MIC Enterococcus faecalis (GC 6189) [4, 10]: 1 µg/mL (≈ 0.685 µM)
MIC Enterococcus faecium (GC 2243) ([4]; Enterococcus faecium (GC 2243)): 1 µg/mL (≈ 0.685 µM)
MIC Enterococcus faecium (GC 4556) ([4]; Enterococcus faecium (GC 4556)): 4 µg/mL (≈ 2.74 µM)
MIC Enterococcus avium (GC 4558) [4, 7]: 4 µg/mL (≈ 2.74 µM)
MIC Enterococcus faecalis (ATCC 29212) [4, 7]: 4 µg/mL (≈ 2.74 µM)
MIC Enterococcus faecalis (GC 2242) [4, 7]: 4 µg/mL (≈ 2.74 µM)
MIC Enterococcus faecalis (GC 6189) [4, 7]: 1 µg/mL (≈ 0.685 µM)
MIC Enterococcus faecium (GC 2243) [4, 7]: 1 µg/mL (≈ 0.685 µM)
MIC Enterococcus faecium (GC 4556) [4, 7]: 4 µg/mL (≈ 2.74 µM)

CC(c1ccccc1)C1NC(=O)CNC(=O)C(CO)NC(=O)C(C(O)C2CNC(=N)N2C2OC(CO)C(O)C(O)C2O)NC(=O)C(C(O)C2CNC(=N)N2)NC(=O)C(Cc2ccc(OC3OC(CO)C(OC4OC5COC6(CCCCCCCCCCCC6)OC5C(O)C4O)C(O)C3O)cc2)NC1=O (stereo not shown) [Example 210]
MIC Streptococcus agalactiae (GC 4564) ([1]; Streptococcus agalactiae (GC 4564)): 0.25 µg/mL (≈ 0.17 µM)
MIC Streptococcus pneumoniae (ATCC 6301) [1, 5]: 0.25 µg/mL (≈ 0.17 µM)
MIC Streptococcus pneumoniae (GC 1894) [1, 6]: <0.06 µg/mL
MIC Streptococcus pneumoniae (GC 4565) ([1]; Streptococcus pneumoniae (GC 4565)): <0.06 µg/mL
MIC Streptococcus pyogenes (GC 4563) ([1]; Streptococcus pyogenes (GC 4563)): 2 µg/mL (≈ 1.36 µM)
MIC Streptococcus agalactiae (GC 4564) [1, 7]: 0.25 µg/mL (≈ 0.17 µM)
MIC Streptococcus pneumoniae (ATCC 6301) [1, 7]: 0.25 µg/mL (≈ 0.17 µM)
MIC Streptococcus pneumoniae (GC 1894) [1, 7]: <0.06 µg/mL
MIC Streptococcus pneumoniae (GC 4565) [1, 7]: <0.06 µg/mL
MIC Streptococcus pyogenes (GC 4563) [1, 7]: 2 µg/mL (≈ 1.36 µM)
MIC Escherichia coli (ATCC 25922) [2]: >64 µg/mL
MIC Escherichia coli (GC 4559) [2]: >64 µg/mL
MIC Escherichia coli (GC 4560) [2]: 64 µg/mL (≈ 43.4 µM)
MIC Staphylococcus aureus (ATCC 29213) [3]: 32 µg/mL (≈ 21.7 µM)
MIC Staphylococcus aureus (GC 1131) [3]: 32 µg/mL (≈ 21.7 µM)
MIC Staphylococcus aureus (GC 3051) ([3]; strain GC 3051): 32 µg/mL (≈ 21.7 µM)
MIC Staphylococcus aureus (GC 3053) ([3]; strain GC 3053): 32 µg/mL (≈ 21.7 µM)
MIC Staphylococcus aureus (GC 4541) [3]: 32 µg/mL (≈ 21.7 µM)
MIC Staphylococcus aureus (GC 4542) ([3]; strain GC 4542): 32 µg/mL (≈ 21.7 µM)
MIC Staphylococcus aureus-SMITH (GC 4543) [3]: 32 µg/mL (≈ 21.7 µM)
MIC Staphylococcus aureus (GC 4544) ([3]; strain GC 4544): 32 µg/mL (≈ 21.7 µM)
MIC Staphylococcus aureus (GC 4545) ([3]; strain GC 4545): 32 µg/mL (≈ 21.7 µM)
MIC Staphylococcus haemolyticus (GC 4546) ([3]; strain GC 4546): 32 µg/mL (≈ 21.7 µM)
MIC Coagulase Negative Staphylococcus (GC 4547) [3]: 32 µg/mL (≈ 21.7 µM)
MIC Coagulase Negative Staphylococcus (GC 4548) [3]: 32 µg/mL (≈ 21.7 µM)
MIC Coagulase Negative Staphylococcus (GC 4549) [3]: 8 µg/mL (≈ 5.43 µM)
MIC Coagulase Negative Staphylococcus (GC 4551) ([3]; strain GC 4551): 32 µg/mL (≈ 21.7 µM)
MIC Coagulase Negative Staphylococcus (GC 6257) [3]: 32 µg/mL (≈ 21.7 µM)
MIC Enterococcus avium (GC 4558) ([4]; Enterococcus avium (GC 4558)): 16 µg/mL (≈ 10.9 µM)
MIC Enterococcus faecalis (ATCC 29212) [4, 8]: 32 µg/mL (≈ 21.7 µM)
MIC Enterococcus faecalis (GC 2242) [4, 9]: 16 µg/mL (≈ 10.9 µM)
MIC Enterococcus faecalis (GC 2691) ([4]; Enterococcus faecalis (GC 2691)): 8 µg/mL (≈ 5.43 µM)
MIC Enterococcus faecalis (GC 3059) ([4]; Enterococcus faecalis (GC 3059)): 32 µg/mL (≈ 21.7 µM)
MIC Enterococcus faecalis (GC 4552) ([4]; Enterococcus faecalis (GC 4552)): 32 µg/mL (≈ 21.7 µM)
MIC Enterococcus faecalis (GC 4553) ([4]; Enterococcus faecalis (GC 4553)): 16 µg/mL (≈ 10.9 µM)
MIC Enterococcus faecalis (GC 4554) ([4]; Enterococcus faecalis (GC 4554)): 32 µg/mL (≈ 21.7 µM)
MIC Enterococcus faecalis (GC 6189) [4, 10]: 16 µg/mL (≈ 10.9 µM)
MIC Enterococcus faecium (GC 2243) ([4]; Enterococcus faecium (GC 2243)): 32 µg/mL (≈ 21.7 µM)
MIC Enterococcus faecium (GC 4556) ([4]; Enterococcus faecium (GC 4556)): 32 µg/mL (≈ 21.7 µM)
MIC Enterococcus faecium (GC 4557) ([4]; Enterococcus faecium (GC 4557)): 32 µg/mL (≈ 21.7 µM)
MIC Enterococcus avium (GC 4558) [4, 7]: 16 µg/mL (≈ 10.9 µM)
MIC Enterococcus faecalis (ATCC 29212) [4, 7]: 32 µg/mL (≈ 21.7 µM)
MIC Enterococcus faecalis (GC 2242) [4, 7]: 16 µg/mL (≈ 10.9 µM)
MIC Enterococcus faecalis (GC 2691) [4, 7]: 8 µg/mL (≈ 5.43 µM)
MIC Enterococcus faecalis (GC 3059) [4, 7]: 32 µg/mL (≈ 21.7 µM)
MIC Enterococcus faecalis (GC 4552) [4, 7]: 32 µg/mL (≈ 21.7 µM)
MIC Enterococcus faecalis (GC 4553) [4, 7]: 16 µg/mL (≈ 10.9 µM)
MIC Enterococcus faecalis (GC 4554) [4, 7]: 32 µg/mL (≈ 21.7 µM)
MIC Enterococcus faecalis (GC 6189) [4, 7]: 16 µg/mL (≈ 10.9 µM)
MIC Enterococcus faecium (GC 2243) [4, 7]: 32 µg/mL (≈ 21.7 µM)
MIC Enterococcus faecium (GC 4556) [4, 7]: 32 µg/mL (≈ 21.7 µM)
MIC Enterococcus faecium (GC 4557) [4, 7]: 32 µg/mL (≈ 21.7 µM)
